Assay results published in patent US11472778B2, “Hepatitis C virus NS3/4A protease inhibitors” (priority 2017, dated 2022).
Where two headings read alike, the source gives them in different places.

Columns and labels:
[1] = tested on: HCV replicon R155K variant in Huh7 cells; assay: microbe, parasite or virus in culture; assay type: cell-based, Hepatitis C virus; conditions: for EC50: Hepatitis C virus; for Replicon EC50 (Fold change) R155K: Table 4, relative to WT replicon
Procedure: (§1) Mutations (R155K, A516T, D168A and D168V) were constructed by site-directed mutagenesis using a Con1 (genotype 1b) luciferase reporter replicon containing the H77 (genotype 1a) NS3 sequence.
(§2) Replicon RNA of each protease variant was introduced into Huh7 cells by electroporation. Replication was then assessed in the presence of increasing concentrations of protease inhibitors by measuring luciferase activity (relative light units) 96 h after electroporation.
(§3) Mutations (R155K, D168A and A156T) were constructed by site-directed mutagenesis using a Con1 (genotype 1b) luciferase reporter replicon containing the H77 (genotype 1a) NS3 sequence.^6 Replicon RNA of each protease variant was introduced into Huh7 cells by electroporation. Replication was then assessed in the presence of increasing concentrations of protease inhibitors by measuring luciferase activity (relative light units) 96 h after electroporation.

[2] = tested on: HCV replicon D168A variant in Huh7 cells; assay: microbe, parasite or virus in culture; assay type: cell-based, Hepatitis C virus; conditions: for EC50: Hepatitis C virus; for Replicon EC50 (Fold change) D168A: Table 4, relative to WT replicon
Procedure: as §1, §2, §3

[3] = tested on: HCV replicon A156T variant in Huh7 cells; assay: microbe, parasite or virus in culture; assay type: cell-based, Hepatitis C virus; conditions: for Replicon EC50 (Fold change) A156T: Table 4, relative to WT replicon
Procedure: as §1, §2, §3

[4] = tested on: wild-type HCV replicon in Huh7 cells; assay: Cell-based drug susceptibility (replicon) assay, wild-type; conditions: Hepatitis C virus, read-out: Replicon EC50 (nM) WT
Procedure: as §1, §2, §3

[5] = tested on: HCV replicon D168V variant in Huh7 cells; assay: microbe, parasite or virus in culture; assay type: cell-based, Hepatitis C virus; conditions: for EC50: Hepatitis C virus; for Replicon EC50 (Fold change) D168V: Table 4, relative to WT replicon
Procedure: as §1
Replicon RNA of each protease variant was introduced into Huh7 cells by electroporation. Replication was then assessed in the presence of increasing concentrations of protease inhibitors by measuring luciferase activity (relative light units) 96 h after electroporation. […]

[6] = biological target: GT1a D168A NS3/4A protease; assay type: biochemical, Hepatitis C virus; conditions: Table 3; Ki D168A relative to GT1a WT
Procedure: (§4) For each assay, 2 nM of NS3/4A protease (GT1, D168A and GT3) was pre-incubated at room temperature for 1 h with increasing concentration of inhibitors in assay buffer [50 mM Tris, 5% glycerol, 10 mM DTT, 0.6 mM LDAO, and 4% dimethyl sulfoxide]. Inhibition assays were performed in nonbinding surface 96-well black half-area plates (Corning) in a reaction volume of 60 μt. […] Three independent data sets were collected for each inhibitor with each protease construct.
(§5) For each assay, 2 nM of NS3/4A protease (GT1a and D168A) was pre-incubated at room temperature for 1 h with increasing concentration of inhibitors in assay buffer (50 mM Tris, 5% glycerol, 10 mM DTT, 0.6 mM LDAO, and 4% dimethyl sulfoxide, pH 7.5). Inhibition assays were performed in non-binding surface 96-well black half-area plates (Corning) in a reaction volume of 60 μL. […] Three independent data sets were collected for each inhibitor with each protease construct.
(§6) For each assay, 2 nM of NS3/4A protease (GT1a, R155K and D168A) was pre-incubated at room temperature for 1 h with increasing concentration of inhibitors in assay buffer (50 mM Tris, 5% glycerol, 10 mM DTT, 0.6 mM LDAO, and 4% dimethyl sulfoxide, pH 7.5). Inhibition assays were performed in non-binding surface 96-well black half-area plates (Corning) in a reaction volume of 60 μL. […] Three independent data sets were collected for each inhibitor with each protease construct. […] Gibbs free energy of binding was calculated using the following equation: ΔG=RTlnKi

[7] = biological target: T1, GT1a D168A NS3/4A protease (UniProt P27958, C1185S/D1194A, species not given); assay type: biochemical, Hepatitis C virus; conditions: read-out: Ki (nM) GT1a D168A NS3/4A Protease
T1 construct: Ki (nM) GT1a D168A NS3/4A Protease
Procedure: as §4, §5, §6

[8] = biological target: T2, wild-type GT1a NS3/4A protease (UniProt P27958, C1185S, species not given); assay type: biochemical, Hepatitis C virus; conditions: read-out: Ki (nM) GT1a WT NS3/4A Protease
T2 construct: Ki (nM) GT1a WT NS3/4A Protease
Procedure: as §4, §5, §6

[9] = Huh-7, read-out: Replicon EC50 (nM) R155K, Table 4
[10] = Huh-7, read-out: Replicon EC50 (nM) D168A, Table 4
[11] = Huh-7, read-out: Replicon EC50 (nM) D168V, Table 4
[12] = Huh-7, 96 h, read-out: Replicon EC50 (nM) R155K, Table 2, Huh7 cells, luciferase 96 h
[13] = Huh-7, 96 h, read-out: Replicon EC50 (nM) D168A, Table 2, Huh7 cells, luciferase 96 h
[14] = Hepatitis C virus, Huh-7, 96 h, read-out: Replicon EC50 (nM) A156T, Table 2, Huh7 cells, luciferase 96 h
[15] = Hepatitis C virus, Huh-7, read-out: Replicon EC50 (nM) A156T, Table 4
[16] = Huh-7, 96 h, Table 2, Huh7 cells, luciferase 96 h
[17] = Huh-7, 96 h, read-out: Replicon EC50 (nM) D168V, Table 2, Huh7 cells, luciferase 96 h

SMILES | EC50 [1, 9] [nM] | EC50 [2, 10] [nM] | EC50 ([4]; Huh-7, Table 4) [nM] | EC50 [5, 11] [nM] | EC50 [1, 12] [nM] | Replicon EC50 (Fold change) R155K [1] | EC50 [2, 13] [nM] | Replicon EC50 (Fold change) D168A [2] | EC50 [3, 14] [nM] | EC50 [3, 15] [nM] | Replicon EC50 (Fold change) A156T [3] | Ki (Fold change) GT1a D168A NS3/4A Protease [6] | Ki ([7]; Table 1) [nM] | Ki ([7]; Table 3) [nM] | Ki ([8]; Table 1) [nM] | Ki ([8]; Table 3) [nM] | EC50 [4, 16] [nM] | EC50 [5, 17] [nM] | Replicon EC50 (Fold change) D168V [5] | other results
C=C[C@@H]1C[C@]1(NC(=O)[C@@H]1C[C@@H]2CN1C(=O)[C@H](C(C)(C)C)NC(=O)O[C@@H]1C[C@H]1CCCCCc1nc3ccc(OC)cc3nc1O2)C(=O)NS(=O)(=O)C1CC1 [Compound 1, grazoprevir, reference compound] | 1.89 | 9.69 | 0.14 | 5.41 | – | – | – | – | – | – | – | – | – | – | – | – | – | – | – | EC50 ([1]; Huh-7, read-out: Replicon EC50 (nM) R155K, Table 9): 1.9 nM; EC50 ([2]; Huh-7, read-out: Replicon EC50 (nM) D168A, Table 9): 11 nM; EC50 ([3]; Hepatitis C virus, Huh-7, read-out: Replicon EC50 (nM) A156T, Table 9): 200 nM; EC50 ([3]; read-out: Replicon EC50 (nM) A156T, Table 2, Huh7 cells, luciferase 96 h): 238 nM; EC50 ([4]; Huh-7, Table 9): 0.12 nM; EC50 ([5]; Huh-7, read-out: Replicon EC50 (nM) D168V, Table 9): 5.3 nM
COc1ccc2nc(C(C)C)c(O[C@@H]3C[C@H]4C(=O)N[C@]5(C(=O)NS(=O)(=O)C6CC6)C[C@H]5/C=C\CCCCC[C@H](NC(=O)OC(C)(C)C)C(=O)N4C3)nc2c1 [Compound 18e] | 5.02 | 15.3 | 1.43 | 23.7 | 5.02 | (4) fold | 15.3 | (11) fold | 25.7 | 25.7 | (18) fold | (56) fold | 239 | 239 ± 20 | 4.27 | 4.27 | 1.43 | 23.7 | (17) fold | –
COc1ccc2nc(C(C)C)c(O[C@@H]3C[C@H]4C(=O)N[C@]5(C(=O)NS(=O)(=O)C6CC6)C[C@H]5/C=C\CCCCC[C@H](NC(=O)OC5CCCC5)C(=O)N4C3)nc2c1 [Compound 22e, Cyclopentyl ((2R,6S,13aS,14aR,16aS,Z)-14a-((cyclopropylsulfonyl)carbamoyl)-2-((3-isopropyl-7-methoxyquinoxalin-2-yl)oxy)-5,16-dioxo-1,2,3,5,6,7,8,9,10,11,13a,14,14a,15,16,16a-hexadecahydrocyclopropa[e]pyrrolo[1,2-a][1,4]diazacyclopentadecin-6-yl)carbamate] | 7.63 | 7.96 | 0.48 | 30.1 | 7.63 | (16) fold | 7.96 | (17) fold | 32.1 | 32.1 | (67) fold | (112) fold | 161 | 161 ± 11 | 1.44 | 1.44 | 0.48 | 30.1 | (63) fold | –
O=C(N[C@H]1CCCCC/C=C\[C@@H]2C[C@@]2(C(=O)NS(=O)(=O)C2CC2)NC(=O)[C@@H]2C[C@@H](Oc3nc4ccccc4nc3-c3cccs3)CN2C1=O)OC1CCCC1 [Compound 22f, Cyclopentyl ((2R,6S,13aS,14aR,16aS,Z)-14a-((cyclopropylsulfonyl)carbamoyl)-5,16-dioxo-2-((3-(thiophen-2-yl)quinoxalin-2-yl)oxy)-1,2,3,5,6,7,8,9,10,11,13a,14,14a,15,16,16a-hexadecahydrocyclopropa[e]pyrrolo[1,2-a][1,4]diazacyclopentadecin-6-yl)carbamate] | 19.2 | 42.2 | 0.4 | 70 | 19.2 | (48) fold | 42.2 | (106) fold | 183 | 183 | (458) fold | (566) fold | 900 | 900 ± 81 | 1.59 | 1.59 | 0.4 | 70 | (175) fold | –
CCc1nc2ccccc2nc1O[C@@H]1C[C@H]2C(=O)N[C@]3(C(=O)NS(=O)(=O)C4CC4)C[C@H]3/C=C\CCCCC[C@H](NC(=O)OC3CCCC3)C(=O)N2C1 [Compound 22g, Cyclopentyl ((2R,6S,13aS,14aR,16aS,Z)-14a-((cyclopropylsulfonyl)carbamoyl)-2-((3-ethylquinoxalin-2-yl)oxy)-5,16-dioxo-1,2,3,5,6,7,8,9,10,11,13a,14,14a,15,16,16a-hexadecahydrocyclopropa[e]pyrrolo[1,2-a][1,4]diazacyclopentadecin-6-yl)carbamate] | 4.28 | 7.5 | 0.24 | 19.3 | 4.28 | (18) fold | 7.5 | (31) fold | 24.6 | 24.6 | (103) fold | (54) fold | 107 | 107 ± 7 | 1.99 | 1.99 | 0.24 | 19.3 | (80) fold | –
